# Key:
# [1] = molecular target: Urokinase-type plasminogen activator (Homo sapiens, UniProt P00749); experiment: Inhibition of uPA
# [2] = molecular target: Tissue-type plasminogen activator (Homo sapiens, UniProt P00750); experiment: Inhibition of tPA
# Trypsin = Trypsin (Homo sapiens, UniProt P07477+P07478+P35030); experiment: Inhibition of trypsin; type: protein assay
# Chain of Tissue-type plasminogen activator (P00750 whole entry): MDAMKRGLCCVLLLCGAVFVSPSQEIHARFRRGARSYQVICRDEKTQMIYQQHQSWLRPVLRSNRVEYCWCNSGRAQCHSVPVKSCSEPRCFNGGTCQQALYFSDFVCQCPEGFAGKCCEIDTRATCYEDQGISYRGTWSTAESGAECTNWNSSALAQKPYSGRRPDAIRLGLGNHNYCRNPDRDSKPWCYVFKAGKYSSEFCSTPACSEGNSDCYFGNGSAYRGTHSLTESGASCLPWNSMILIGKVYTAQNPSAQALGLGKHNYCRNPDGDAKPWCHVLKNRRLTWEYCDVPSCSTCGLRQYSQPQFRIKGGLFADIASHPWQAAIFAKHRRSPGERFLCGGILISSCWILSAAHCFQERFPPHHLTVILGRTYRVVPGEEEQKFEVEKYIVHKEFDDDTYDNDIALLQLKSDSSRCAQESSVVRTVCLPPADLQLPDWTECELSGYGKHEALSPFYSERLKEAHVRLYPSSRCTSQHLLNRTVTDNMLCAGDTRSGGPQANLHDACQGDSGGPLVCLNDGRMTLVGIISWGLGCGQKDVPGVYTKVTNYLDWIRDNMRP
smiles,measurement,setting,value
N=C(N)Nc1ccc(CC(=O)c2ccccc2)cc1,Ki,[1],34 µM
same,Ki,[2],> 1000 µM
same,Ki,Trypsin,160 µM
